Experimental data reported in US4994485A, “Thio compounds having fungicidal activity” (Duphar International Research B.V., priority 1986, dated 1991).

Tests used:
Pythium spp. = experiment: Protection of seedlings against plant-pathogenic soil fungus by seed treatment (beet); assay type: in vivo; conditions: after 3 weeks, 18°-22° C., untreated 72
Method: Test with respect to the protection of seedlings against a plant-pathogenicsoil fungus, namely Pythium spp., by means of a seed treatment.
The compounds to be tested are processed to compositions by pulverising them and then mixing them intimately with kaolin in the desired concentration (see Table B). Beet seed is treated with these compositions in a quantity of 6 g of composition per kg of seed and then sown in trays with soil which was seriously infested with Pythium spp. After 3 weeks in a glass-house at 18°-22° C. and a relative humidity of 70-100%, the percentage of non-emerged and diseased seedlings (damping-off) is determined. The results are recorded in Table B. For comparison, the known substance 2-methylsulphinyl-4-methyl-5-nitrothiazole(a) is also tested.

Fusarium culmorum [1] = experiment: Protection of seedlings against plant pathogenic seed fungus by seed treatment (wheat); assay type: in vivo; conditions: wheat seed infested with Fusarium culmorum; 3 g composition (10% by weight in kaolin) per kg of seed; after three weeks, 8°-12° C.; untreated 67
Method: Test with respect to the protection of seedlings against a plant pathogenic seed fungus, namely Fusarium culmorum, by means of a seed treatment.
Wheat seed, infested with Fusarium culmorum, is treated with the substance to be tested in the form of a composi tion in a quantity of 3 g per kg of seed. The composition is obtained by pulverising the substance to be tested and then intimately mixing with kaolin in a concentration of 10% by weight. The seed thus treated is sown in a tray containing soil which is placed in a Wisconsin tank with a bottom temperature of 8°-12° C. After three weeks the number of emerged and healthy plants is determined. The emergence of healthy plants from untreated seed serves as control. For comparison, the known substances 2-methylsulphinyl-4-methyl-5-nitrothiazole (a), 2-methylsulphinyl-3-nitrothiophene (b) and 2-ethylsulphinyl-3-nitro-5-acetylthiophene (c) mentioned hereinbefore are also tested. In the examples, the numbers of the compounds refer to the specification.

Pythium splendens = experiment: In vitro test on activity against Pythium splendens; assay type: cell-based; conditions: Globisporangium splendens, read-out: growth inhibition of the fungus
Pyrenophora graminea = experiment: In vitro test on activity against Pyrenophora graminea; assay type: cell-based; conditions: 48 hours, 20° C., read-out: % growth inhibition of the fungus
Method: In vitro test on activity against Pyrenophora graminea.
(§1) The compound to be tested is processed in a culture medium consisting of 1% by weight of glucose, 0.2% by weight of a yeast extract (marmite), 0.5% by weight of a protein (pepton), 2.5% by weight of agar-agar, and 95.8% by weight of water, in petri dishes in concentrations of 3 and 10 ppm. The petri dishes are inoculated with the plant-pathogenic fungus Pyrenophora graminea and then kept at a temperature of 20° C. After 48 hours the growth-inhibiting activity of the compounds is determined visually. For comparison, the known substance (b) (see EXAMPLE XV) is also tested.

Rhizoctonia solani = experiment: In vitro test on activity against Rhizoctonia solani; assay type: cell-based; conditions: read-out: growth inhibition of the fungus
Method: as §1, with “in petri dishes in concentrations of 3 and 10 ppm.” left out
Compounds according to the invention are tested on Rhizoctonia solani in the same manner as described in EXAMPLE XIX.

Leptosphaeria nodorum = experiment: In vitro test on activity against Leptosphaeria nodorum; assay type: cell-based; conditions: Parastagonospora nodorum, read-out: growth inhibition of the fungus
Method: as §1
Compounds according to the invention are tested on i Leptosphaeria nodorum in the same manner as described in EXAMPLE XIX.

Fusarium culmorum [2] = experiment: In vitro test on activity against Fusarium culmorum; assay type: cell-based; conditions: read-out: growth inhibition of the fungus
[3] = 600 mg of active substance per kg of seed
[4] = 1200 mg of active substance per kg of seed

SMILES	percentage damping-off (Pythium spp.; [3]) [%]	percentage damping-off (Pythium spp.; [4]) [%]	Percentage of emerged, healthy plants (Fusarium culmorum [1]) [%]	inhibition at 10 ppm (Pythium splendens) [%]	inhibition at 3 ppm (Pyrenophora graminea) [%]	inhibition at 10 ppm (Pyrenophora graminea) [%]	inhibition at 30 ppm (Rhizoctonia solani) [%]	inhibition at 30 ppm (Leptosphaeria nodorum) [%]	inhibition at 30 ppm (Fusarium culmorum [2]) [%]
CC(=O)c1cc(C#N)c([S+](C)[O-])s1 (stereo not drawn) [(1), 2-methylsulphinyl-3-cyano-5-acetylthiophene]	8	7	91	≥ 95					
C[S+]([O-])c1sc(C#N)cc1C#N (stereo not drawn) [(4), 2-methylsulphinyl-3,5-dicyanothiophene]	10	9	90	≥ 95	66	84	≥ 75	≥ 85	
CC[S+]([O-])c1sc(C(C)=O)c(Cl)c1C#N (stereo not drawn) [(5), 2-ethylsulphinyl-3-cyano-4-chloro-5-acetylthiophene]	21	17	85	≥ 95	54	89		≥ 85	≥ 75
CC[S+]([O-])c1sc(C(C)=O)cc1C#N (stereo not drawn) [(9), 2-ethylsulphinyl-3-cyano-5-acetylthiophene]	15	11	85	≥ 95				≥ 85	
COc1c(C#N)sc([S+](C)[O-])c1C#N (stereo not drawn) [(12), 2-methylsulphinyl-3,5-dicyano-4-methoxythiophene]	0	0	93	≥ 95				≥ 85	≥ 75
CCOc1c(C#N)sc([S+]([O-])CC)c1C#N (stereo not drawn) [(14), 2-ethylsulphinyl-3,5-dicyano-4-ethoxythiophene]	23	20	87	≥ 95				≥ 85	≥ 75
CSC(=C(C#N)c1ccc(Cl)c(Cl)c1)[S+](C)[O-] (stereo not drawn) [(15), α-cyano-β-merhylsulphinyl-β-methylthio-3,4-dichloro-styrene]				≥ 95			≥ 75	≥ 85	
CSC(=C(C#N)c1ccc(Cl)cc1)[S+](C)[O-] (stereo not drawn) [(19), α-cyanoβ-methylsulphinyl-β-methylthio-4-chlorostyrene]				≥ 95			≥ 75	≥ 85	≥ 75
CC[S+]([O-])c1sc2cc([N+](=O)[O-])ccc2c1C#N (stereo not drawn) [(27), 2-ethylsulphinyl-3-cyano-6-nitro-benzothiophene]	4	2	96	≥ 95			≥ 75	≥ 85	≥ 75
C[S+]([O-])c1sc(C(=O)c2ccccc2)c(Cl)c1C#N (stereo not drawn) [(31), 2-methylsulphinyl-3-cyano-4-chloro 5-benzoylthiophene]				≥ 95		77		≥ 85	≥ 75
CCCCCC[S+]([O-])c1sc(C#N)c(Cl)c1C#N (stereo not drawn) [(34), 2-n-hexylsulphinyl-3,5-dicyano-4-chlorothiophene]				≥ 95			≥ 75	≥ 85	≥ 75
C[S+]([O-])c1sc(C#N)c(-c2ccc(Cl)cc2)c1C#N (stereo not drawn) [(35), 2-methylsulphinyl-3,5-dicyano-4-(4-chlorophenyl)thiophene]				≥ 95		76		≥ 85	≥ 75
CCCCCCCC[S+]([O-])c1sc(C#N)c(Cl)c1C#N (stereo not drawn) [(36), 2-n-octylsulphinyl-3,5-dicyano-4-chlorothiophene]				≥ 95			≥ 75	≥ 85	≥ 75
CCCC[S+]([O-])c1sc(C(C)=O)c(Cl)c1C#N (stereo not drawn) [(39), 2-n-butylsulphinyl 3-cyano-4-chloro-5-acetylthiophene]				≥ 95		81	≥ 75		≥ 75
C[S+]([O-])c1sc(C(=O)c2ccc(Cl)cc2)c(Cl)c1C#N (stereo not drawn) [(42), 2-methylsulphinyl-3-cyano-4-chloro-5-(4-chlorobenzoyl) thiophene]				≥ 95			≥ 75	≥ 85	≥ 75
CC[S+]([O-])c1sc(C(=O)c2ccc(Cl)cc2)cc1C#N (stereo not drawn) [(47), 2-ethylsulphinyl-3-cyano-5-(4-chlorobenzoyl)thiophene]				≥ 95		74		≥ 85	≥ 75
C[S+]([O-])c1sc(C(=O)c2ccccc2)cc1C#N (stereo not drawn) [(51), 2-methylsulphinyl-3-cyano-5-benzoylthiophene]						71		≥ 85	≥ 75
C[S+]([O-])c1sc(C(=O)c2ccc(Cl)cc2)cc1C#N (stereo not drawn) [(52), 2-methylsulphinyl-3-cyano-5-(4-chlorobenzoyl)thiophene]				≥ 95		71	≥ 75		≥ 75
CCSC(=C(C#N)c1ccc(Cl)cc1)[S+]([O-])CC (stereo not drawn) [(53), α-cyano-β-ethylsulphinyl-β-ethylthio-4-chlorostyrene]						83		≥ 85	≥ 75
CC[S+]([O-])c1sc(C(=O)c2ccc(Cl)cc2)c(Cl)c1C#N (stereo not drawn) [(72), 2-ethylsulphinyl-3-cyano-4-chloro-5-(4-chlorobenzoyl)thiophene]				≥ 95		70		≥ 85	≥ 75
CCCC[S+]([O-])c1sc(C#N)c(Br)c1C#N (stereo not drawn) [(79), 2-n-butylsulphinyl-3,5-dicyano-4-bromothiophene]				≥ 95		80			≥ 75
CCCC[S+]([O-])c1sc(C#N)cc1C#N (stereo not drawn) [(80)]				≥ 95			≥ 75		≥ 75
N#Cc1sc([S+]([O-])c2ccccc2)c(C#N)c1Cl (stereo not drawn) [(82), 2 phenylsulphinyl-3,5-dicyano-4-chlorothiophene]				≥ 95		80			≥ 75
C[S+]([O-])c1sc(C#N)c(Sc2ccccc2)c1C#N (stereo not drawn) [(85), 2-methylsulphinyl-3,5-dicyano-4-phenylthio-thiophene]				≥ 95		73	≥ 75	≥ 85	≥ 75
CCCC[S+]([O-])c1sc(C(C)=O)c(Br)c1C#N (stereo not drawn) [(86), 2-n-butylsulphinyl-3-cyano-4-bromo-5-acetylthiophene]				≥ 95		76		≥ 85	≥ 75
CC[S+]([O-])c1sc(C#N)c(Oc2ccccc2)c1C#N (stereo not drawn) [(94), 2-ethylsulphinyl-3,5-dicyano-4-phenoxythiophene]				≥ 95		70		≥ 85	
